Assay results: US10815230B2, “Casein kinase 1 delta inhibitor” (ELECTROPHORETICS LIMITED, priority 2015, dated 2020)

Key:
Assay in all cases: Kinase selectivity, % remaining activity
Assay type in all cases: biochemical
Conditions in all cases: 10 μM compound, 10 μM ATP, duplicate
[1] = molecular target: ABL2/ARG (Homo sapiens, UniProt P42684)
Experimental: (§1) A two-tier strategy to determine the selectivity of compound A was applied: first, the compound was tested at a single concentration (in duplicate) to determine the %-remaining activity of the target kinase. Subsequently, the IC50 of compound A and comparative compounds for casein kinase 1 delta were determined.
(§2) Compounds were tested in single dose duplicate mode at a concentration of 10 μM (in DMSO) and reactions were carried out at 10 μM ATP, Table 3 reports the % of remaining activity (relative to DMSO).

[2] = molecular target: CDK5/p25 (Homo sapiens, UniProt Q00535)
Experimental: as §1, §2

[3] = molecular target: CK1e (Homo sapiens, UniProt P49674)
Experimental: as §1, §2

[4] = molecular target: CK1g1 (Homo sapiens, UniProt Q9HCP0)
Experimental: as §1, §2

[5] = molecular target: CK1g3 (Homo sapiens, UniProt Q9Y6M4)
Experimental: as §1, §2

[6] = molecular target: CLK2 (Homo sapiens, UniProt P49760)
Experimental: as §1, §2

[7] = molecular target: EGFR (Homo sapiens, UniProt P00533)
Experimental: as §1, §2

[8] = molecular target: EPHA2 (Homo sapiens, UniProt P29317)
Experimental: as §1, §2

[9] = molecular target: FGFR1 (Homo sapiens, UniProt P11362)
Experimental: as §1, §2

[10] = molecular target: GSK3B (Homo sapiens, UniProt P49841)
Experimental: as §1, §2

[11] = molecular target: JNK2 (Homo sapiens, UniProt P45984)
Experimental: as §1, §2

[12] = molecular target: KDR/VEGFR2 (Homo sapiens, UniProt P35968)
Experimental: as §1, §2

[13] = molecular target: LCK (Homo sapiens, UniProt P06239)
Experimental: as §1, §2

[14] = molecular target: P38a/MAPK14 (Homo sapiens, UniProt Q16539)
Experimental: as §1, §2

[15] = molecular target: T1, PDK1/PDPK1 (Homo sapiens, UniProt O15530)
T1 sequence (O15530 1-556): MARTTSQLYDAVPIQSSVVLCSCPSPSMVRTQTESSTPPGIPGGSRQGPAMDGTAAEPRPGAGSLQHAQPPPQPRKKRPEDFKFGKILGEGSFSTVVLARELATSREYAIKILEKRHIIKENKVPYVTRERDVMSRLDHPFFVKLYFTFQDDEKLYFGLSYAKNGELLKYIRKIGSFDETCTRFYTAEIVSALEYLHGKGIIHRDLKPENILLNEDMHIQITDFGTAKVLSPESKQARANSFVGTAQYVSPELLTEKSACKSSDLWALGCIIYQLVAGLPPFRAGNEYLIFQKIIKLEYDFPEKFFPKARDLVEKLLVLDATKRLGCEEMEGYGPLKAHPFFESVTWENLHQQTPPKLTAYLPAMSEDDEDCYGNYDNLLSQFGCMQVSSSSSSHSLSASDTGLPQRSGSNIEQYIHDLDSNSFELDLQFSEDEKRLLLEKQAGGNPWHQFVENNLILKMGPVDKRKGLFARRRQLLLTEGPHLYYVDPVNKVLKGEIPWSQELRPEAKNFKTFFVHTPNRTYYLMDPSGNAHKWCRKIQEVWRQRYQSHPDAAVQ
Experimental: as §1, §2

[16] = molecular target: PIM3 (Homo sapiens, UniProt Q86V86)
Experimental: as §1, §2

[17] = molecular target: PKA (Homo sapiens, UniProt P17612)
Experimental: as §1, §2

[18] = molecular target: PKCb2 (Homo sapiens, UniProt P05771)
Experimental: as §1, §2

[19] = molecular target: RIPK2 (Homo sapiens, UniProt O43353)
Experimental: as §1, §2

[20] = molecular target: ROCK1 (Homo sapiens, UniProt Q13464)
Experimental: as §1, §2

[21] = molecular target: TNIK (Homo sapiens, UniProt Q9UKE5)
Experimental: as §1, §2

[22] = molecular target: YES/YES1 (Homo sapiens, UniProt P07947)
Experimental: as §1, §2

[23] = read-out: % of remaining activity (relative to DMSO)

Chain of LCK (P06239 whole entry): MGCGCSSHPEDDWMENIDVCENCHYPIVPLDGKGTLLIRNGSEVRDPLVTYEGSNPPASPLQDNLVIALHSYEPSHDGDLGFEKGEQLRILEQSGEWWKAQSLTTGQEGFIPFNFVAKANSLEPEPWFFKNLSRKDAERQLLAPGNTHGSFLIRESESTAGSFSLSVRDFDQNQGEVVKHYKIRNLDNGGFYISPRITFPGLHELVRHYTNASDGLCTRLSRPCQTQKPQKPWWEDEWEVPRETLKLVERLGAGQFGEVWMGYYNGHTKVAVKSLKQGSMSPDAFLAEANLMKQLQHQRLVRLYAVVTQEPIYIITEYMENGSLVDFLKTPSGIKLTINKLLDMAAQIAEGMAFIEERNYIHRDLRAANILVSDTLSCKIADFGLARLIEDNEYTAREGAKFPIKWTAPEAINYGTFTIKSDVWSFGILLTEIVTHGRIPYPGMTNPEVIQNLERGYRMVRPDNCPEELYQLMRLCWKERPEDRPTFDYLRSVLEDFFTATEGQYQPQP
Chain of CK1g1 (Q9HCP0 whole entry): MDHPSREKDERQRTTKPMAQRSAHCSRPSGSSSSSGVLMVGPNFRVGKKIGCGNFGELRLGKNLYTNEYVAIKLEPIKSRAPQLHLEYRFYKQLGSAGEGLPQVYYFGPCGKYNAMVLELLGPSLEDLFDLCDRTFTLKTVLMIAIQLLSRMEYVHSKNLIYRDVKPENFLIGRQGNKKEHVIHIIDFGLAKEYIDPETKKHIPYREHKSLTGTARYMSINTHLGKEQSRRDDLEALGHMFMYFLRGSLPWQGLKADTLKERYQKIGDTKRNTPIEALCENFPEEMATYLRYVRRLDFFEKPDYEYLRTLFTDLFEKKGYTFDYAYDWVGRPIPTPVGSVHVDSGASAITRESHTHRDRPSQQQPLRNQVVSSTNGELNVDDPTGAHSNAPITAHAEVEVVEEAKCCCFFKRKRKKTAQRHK
Chain of P38a/MAPK14 (Q16539 whole entry): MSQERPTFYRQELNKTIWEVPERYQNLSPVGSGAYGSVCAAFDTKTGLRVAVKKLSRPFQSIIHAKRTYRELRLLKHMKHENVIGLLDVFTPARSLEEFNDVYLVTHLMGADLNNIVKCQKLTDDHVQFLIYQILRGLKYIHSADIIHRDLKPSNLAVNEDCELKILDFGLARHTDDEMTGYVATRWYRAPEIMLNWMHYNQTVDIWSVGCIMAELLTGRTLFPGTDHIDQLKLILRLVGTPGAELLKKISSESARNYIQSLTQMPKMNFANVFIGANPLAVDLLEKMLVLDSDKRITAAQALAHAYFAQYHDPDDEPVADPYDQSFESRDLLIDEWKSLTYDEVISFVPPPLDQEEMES
Chain of TNIK (Q9UKE5 whole entry): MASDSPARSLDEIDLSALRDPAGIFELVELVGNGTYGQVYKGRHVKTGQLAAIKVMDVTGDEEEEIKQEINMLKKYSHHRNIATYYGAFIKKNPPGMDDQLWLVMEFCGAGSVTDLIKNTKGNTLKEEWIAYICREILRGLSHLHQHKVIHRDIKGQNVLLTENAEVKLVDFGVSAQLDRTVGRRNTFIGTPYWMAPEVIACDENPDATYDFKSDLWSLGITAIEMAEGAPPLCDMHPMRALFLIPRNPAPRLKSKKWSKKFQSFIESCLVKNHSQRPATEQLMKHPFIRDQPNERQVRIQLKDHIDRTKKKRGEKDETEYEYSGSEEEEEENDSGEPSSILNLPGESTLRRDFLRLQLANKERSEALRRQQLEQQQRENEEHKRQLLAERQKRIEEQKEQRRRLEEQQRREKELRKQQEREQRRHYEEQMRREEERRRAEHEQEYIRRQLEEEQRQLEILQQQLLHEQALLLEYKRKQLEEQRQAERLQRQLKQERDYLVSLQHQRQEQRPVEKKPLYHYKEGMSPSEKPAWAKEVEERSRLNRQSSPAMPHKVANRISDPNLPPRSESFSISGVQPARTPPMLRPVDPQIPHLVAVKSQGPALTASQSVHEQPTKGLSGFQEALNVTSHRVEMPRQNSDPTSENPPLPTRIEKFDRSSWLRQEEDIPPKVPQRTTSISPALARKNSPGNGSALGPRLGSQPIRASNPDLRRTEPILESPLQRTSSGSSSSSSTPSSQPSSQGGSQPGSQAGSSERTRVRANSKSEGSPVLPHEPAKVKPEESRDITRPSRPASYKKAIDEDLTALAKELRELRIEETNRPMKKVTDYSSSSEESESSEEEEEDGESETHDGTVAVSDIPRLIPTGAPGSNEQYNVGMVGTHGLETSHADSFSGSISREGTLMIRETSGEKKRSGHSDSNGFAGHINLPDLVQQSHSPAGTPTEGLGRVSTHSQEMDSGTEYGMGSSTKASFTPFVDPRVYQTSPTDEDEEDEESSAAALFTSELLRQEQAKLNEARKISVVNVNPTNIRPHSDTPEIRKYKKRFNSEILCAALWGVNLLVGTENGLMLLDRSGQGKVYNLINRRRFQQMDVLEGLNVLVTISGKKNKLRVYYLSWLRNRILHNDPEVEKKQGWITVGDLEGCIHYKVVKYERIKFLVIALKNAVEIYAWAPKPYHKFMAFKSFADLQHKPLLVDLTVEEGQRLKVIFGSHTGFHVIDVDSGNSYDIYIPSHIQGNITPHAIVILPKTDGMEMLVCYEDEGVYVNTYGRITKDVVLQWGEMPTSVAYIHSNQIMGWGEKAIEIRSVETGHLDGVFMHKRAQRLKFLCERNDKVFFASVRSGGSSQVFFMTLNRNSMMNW
Chain of CK1e (P49674 whole entry): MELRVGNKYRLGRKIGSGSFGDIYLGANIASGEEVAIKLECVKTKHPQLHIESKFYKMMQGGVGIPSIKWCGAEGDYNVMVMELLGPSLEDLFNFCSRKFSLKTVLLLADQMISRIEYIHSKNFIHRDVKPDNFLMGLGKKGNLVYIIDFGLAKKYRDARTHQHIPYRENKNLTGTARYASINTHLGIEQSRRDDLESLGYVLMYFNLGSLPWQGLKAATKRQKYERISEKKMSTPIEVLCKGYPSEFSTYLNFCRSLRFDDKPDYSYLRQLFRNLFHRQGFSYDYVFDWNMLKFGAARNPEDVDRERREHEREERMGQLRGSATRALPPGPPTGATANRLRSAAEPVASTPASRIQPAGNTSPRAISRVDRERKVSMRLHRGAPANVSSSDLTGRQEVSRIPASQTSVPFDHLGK
Chain of CK1g3 (Q9Y6M4 whole entry): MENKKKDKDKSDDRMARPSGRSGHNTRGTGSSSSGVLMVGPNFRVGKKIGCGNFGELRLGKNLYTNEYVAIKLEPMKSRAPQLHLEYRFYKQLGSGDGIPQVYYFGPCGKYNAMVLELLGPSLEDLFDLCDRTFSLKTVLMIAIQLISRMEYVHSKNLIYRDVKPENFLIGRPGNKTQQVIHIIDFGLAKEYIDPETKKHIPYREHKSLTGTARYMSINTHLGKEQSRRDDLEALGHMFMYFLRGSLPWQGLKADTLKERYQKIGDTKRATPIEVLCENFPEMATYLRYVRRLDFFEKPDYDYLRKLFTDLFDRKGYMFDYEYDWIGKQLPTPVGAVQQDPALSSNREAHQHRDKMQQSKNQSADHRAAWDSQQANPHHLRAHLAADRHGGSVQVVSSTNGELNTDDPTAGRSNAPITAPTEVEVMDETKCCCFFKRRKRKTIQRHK
Chain of KDR/VEGFR2 (P35968 20-1356): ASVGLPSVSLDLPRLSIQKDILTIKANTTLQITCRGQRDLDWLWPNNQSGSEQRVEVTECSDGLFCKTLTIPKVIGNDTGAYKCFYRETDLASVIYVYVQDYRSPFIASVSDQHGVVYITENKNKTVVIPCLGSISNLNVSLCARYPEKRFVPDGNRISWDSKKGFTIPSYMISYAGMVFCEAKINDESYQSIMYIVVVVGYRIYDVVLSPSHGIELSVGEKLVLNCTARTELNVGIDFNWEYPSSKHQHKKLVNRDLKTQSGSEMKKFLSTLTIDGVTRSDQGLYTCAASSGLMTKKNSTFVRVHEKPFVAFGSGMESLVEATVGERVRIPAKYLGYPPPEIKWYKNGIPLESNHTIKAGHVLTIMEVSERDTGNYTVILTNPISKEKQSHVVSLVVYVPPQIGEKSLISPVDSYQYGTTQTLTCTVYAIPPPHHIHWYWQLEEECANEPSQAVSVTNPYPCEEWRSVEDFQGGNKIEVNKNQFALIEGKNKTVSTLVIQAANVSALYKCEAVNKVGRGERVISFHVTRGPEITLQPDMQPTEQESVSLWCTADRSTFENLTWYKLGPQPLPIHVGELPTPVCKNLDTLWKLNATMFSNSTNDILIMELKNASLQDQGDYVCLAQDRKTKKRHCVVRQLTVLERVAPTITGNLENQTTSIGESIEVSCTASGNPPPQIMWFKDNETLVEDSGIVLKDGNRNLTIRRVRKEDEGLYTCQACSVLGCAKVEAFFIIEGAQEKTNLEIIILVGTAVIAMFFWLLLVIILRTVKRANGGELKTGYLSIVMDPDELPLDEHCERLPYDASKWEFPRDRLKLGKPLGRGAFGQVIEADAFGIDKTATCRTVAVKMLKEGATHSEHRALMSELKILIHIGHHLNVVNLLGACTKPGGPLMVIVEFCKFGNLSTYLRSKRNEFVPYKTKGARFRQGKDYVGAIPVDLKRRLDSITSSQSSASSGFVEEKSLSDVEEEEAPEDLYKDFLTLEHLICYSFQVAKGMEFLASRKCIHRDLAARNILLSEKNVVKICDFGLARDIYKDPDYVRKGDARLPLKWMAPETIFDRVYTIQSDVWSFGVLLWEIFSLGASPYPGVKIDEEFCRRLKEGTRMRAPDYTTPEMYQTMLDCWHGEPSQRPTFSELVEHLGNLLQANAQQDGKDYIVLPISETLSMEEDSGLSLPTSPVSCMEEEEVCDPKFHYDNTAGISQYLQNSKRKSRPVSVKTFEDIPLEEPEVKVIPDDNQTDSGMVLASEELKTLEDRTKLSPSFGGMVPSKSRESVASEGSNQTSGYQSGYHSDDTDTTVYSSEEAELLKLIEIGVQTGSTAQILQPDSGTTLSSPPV

Structure (SMILES): Nc1ncc(-c2nc3ccccc3o2)c(-c2ccncc2)n1 [Comparative Compound 324, 5-(1,3-benzoxazol-2-yl)-4-(pyridine-4-yl)pyrimidin-2-amine]
- % of remaining activity (relative to DMSO) ([1]; listed as Cmp 324): 96.78%
- remaining activity at 10 µM [1, 23]: 101%
- % of remaining activity (relative to DMSO) ([2]; listed as Cmp 324): 97.13%
- remaining activity at 10 µM [2, 23]: 87.7%
- % of remaining activity (relative to DMSO) ([3]; listed as Cmp 324): 24.86%
- remaining activity at 10 µM [3, 23]: 28.2%
- % of remaining activity (relative to DMSO) ([4]; listed as Cmp 324): 92.69%
- remaining activity at 10 µM [4, 23]: 99%
- % of remaining activity (relative to DMSO) ([5]; listed as Cmp 324): 62.63%
- remaining activity at 10 µM [5, 23]: 69.9%
- % of remaining activity (relative to DMSO) ([6]; listed as Cmp 324): 92.16%
- remaining activity at 10 µM [6, 23]: 96.2%
- % of remaining activity (relative to DMSO) ([7]; listed as Cmp 324): 79.83%
- remaining activity at 10 µM [7, 23]: 83.8%
- % of remaining activity (relative to DMSO) ([8]; listed as Cmp 324): 105.62%
- remaining activity at 10 µM [8, 23]: 98.7%
- % of remaining activity (relative to DMSO) ([9]; listed as Cmp 324): 108.45%
- remaining activity at 10 µM [9, 23]: 104%
- % of remaining activity (relative to DMSO) ([10]; listed as Cmp 324): 80.19%
- remaining activity at 10 µM [10, 23]: 91.3%
- % of remaining activity (relative to DMSO) ([11]; listed as Cmp 324): 91.75%
- remaining activity at 10 µM [11, 23]: 95.1%
- % of remaining activity (relative to DMSO) ([12]; listed as Cmp 324): 100.01%
- remaining activity at 10 µM [12, 23]: 85.1%
- % of remaining activity (relative to DMSO) ([13]; listed as Cmp 324): 95.46%
- remaining activity at 10 µM [13, 23]: 102%
- % of remaining activity (relative to DMSO) ([14]; listed as Cmp 324): 48.46%
- remaining activity at 10 µM [14, 23]: 53.9%
- % of remaining activity (relative to DMSO) ([15]; listed as Cmp 324): 104.88%
- remaining activity at 10 µM [15, 23]: 105%
- % of remaining activity (relative to DMSO) ([16]; listed as Cmp 324): 95.35%
- remaining activity at 10 µM [16, 23]: 100%
- % of remaining activity (relative to DMSO) ([17]; listed as Cmp 324): 90.27%
- remaining activity at 10 µM [17, 23]: 90.8%
- % of remaining activity (relative to DMSO) ([18]; listed as Cmp 324): 103.51%
- remaining activity at 10 µM [18, 23]: 101%
- % of remaining activity (relative to DMSO) ([19]; listed as Cmp 324): 92.78%
- remaining activity at 10 µM [19, 23]: 92.2%
- % of remaining activity (relative to DMSO) ([20]; listed as Cmp 324): 109.68%
- remaining activity at 10 µM [20, 23]: 109%
- % of remaining activity (relative to DMSO) ([21]; listed as Cmp 324): 65.72%
- remaining activity at 10 µM [21, 23]: 74.6%
- % of remaining activity (relative to DMSO) ([22]; listed as Cmp 324): 95.22%
- remaining activity at 10 µM [22, 23]: 108%
